Data published in patent US7067535B2, “5-Phenylbenzylamine compounds, process for their production and intermediates for their synthesis” (Tanabe Seiyaku Co., Ltd., priority 2000, dated 2006).
Structures can show the parent of a compound that is named as a salt.

| melting point | Compound |
| --- | --- |
| 277 to 279 °C (dec.) | COc1ccc(-c2ccc(F)cc2)cc1CN[C@H]1CCCN[C@H]1c1ccccc1.Cl.Cl |
| 277 to 278 °C (dec.) | COc1ccc(-c2ccc(C#N)cc2)cc1CN[C@H]1CCCN[C@H]1c1ccccc1 [Example 16, [2-methoxy-5-(4-cyanophenyl)benzyl][(2S,3S)-2-phenylpiperidin-3-yl]amine] |
| 298 to 300 °C | COc1ccc(-c2ccc(C#N)cc2)cc1CN[C@H]1CC[C@@H](C)N[C@H]1c1ccccc1 [Example 113, [2-methoxy-5-(4-cyanophenyl)benzyl][(2S,3S,6R)6-methyl-2-phenylpiperidin-3-yl]amine] |
| 280 to 281 °C (dec.) | COc1ccc(-c2ccc(C#N)cc2F)cc1CN[C@H]1CCCN[C@H]1c1ccccc1 [Example 51, [2-methoxy-5-(2-fluoro-4-cyanophenyl)benzyl][(2S,3S)2-phenylpiperidin-3-yl]amine] |
| 274 to 278 °C (dec.) | COc1ccc(-c2ccc(F)cc2)cc1[C@H](C)N[C@H]1CCCN[C@H]1c1ccccc1 (as salt: hydrochloride) [Example 102, [2-methoxy-5-(4-fluorophenyl)-(S)-α-methylbenzyl][(2S,3S)-2-phenylpiperidin-3-yl]amine dihydrochloride] |
| 272 to 274 °C (dec.) | COc1ccc(-c2ccc(Cl)cc2)cc1CN[C@H]1CCCN[C@H]1c1ccccc1 [Example 7, [2-methoxy-5-(4-chlorophenyl)benzyl][(2S,3S)-2-phenylpiperidin-3-yl]amine] |
| 200 to 204 °C (dec.) | COc1ccc(-c2ccc(F)cc2)cc1[C@@H](C)N[C@H]1CCCN[C@H]1c1ccccc1 (as salt: hydrochloride) [Example 101, [2-methoxy-5-(4-fluorophenyl)-(R)-α-methylbenzyl][(2S,3S)-2-phenylpiperidin-3-yl]amine dihydrochloride] |

Second part, the compound before the results:

| Compound | melting point |
| --- | --- |
| COc1ccc(-c2ccccc2C(F)(F)F)cc1CN[C@H]1CCCN[C@H]1c1ccccc1.Cl.Cl (racemic) | 260 to 262 °C |
| COc1ccc(-c2ccc(F)cc2)cc1CN[C@H]1CCCN(Cc2n[nH]c(=O)o2)[C@H]1c1ccccc1 (as salt: hydrochloride) [Example 106, (2S,3S)-1-[5(4H)-oxo-1,3,4-oxadiazol-2-yl]methyl-2-phenyl-3-[[2-methoxy-5-(4-fluorophenyl)benzyl]amino]piperidine-dihydrochloride] | 212 to 216 °C (dec.) |
| COc1ccc(-c2ccc(F)cc2)cc1CN[C@H]1CCCN(Cc2n[nH]c(=S)[nH]2)[C@H]1c1ccccc1 (as salt: hydrochloride) [Example 105, (2S,3S)-1-[5(4H)-thioxo-1,2,4-triazol-3-yl]methyl-2-phenyl-3-[[2-methoxy-5-(4-fluorophenyl)benzyl]amino]piperidinedihydrochloride] | 180 to 182 °C (dec.) |
| COc1ccc(-c2ccc(F)cc2)cc1CN[C@H]1CCCN(Cc2nnc[nH]2)[C@H]1c1ccccc1 (as salt: hydrochloride) [Example 103, (2S,3S)-1-(1,2,4-triazol-3-ylmethyl)-2-phenyl-3-[[2-methoxy-5-(4-fluorophenyl)benzyl]amino]piperidine trihydrochloride] | 208 to 210 °C (dec.) |
| COc1ccc(-c2ccc(C#N)cc2F)cc1CN[C@H]1CC[C@@H](C)N[C@H]1c1ccccc1 [Example 112, [2-methoxy-5-(2-fluoro-4-cyanophenyl)benzyl]-[(2S,3S,6R)-6-methyl-2-phenylpiperidin-3-yl]amine] | 301 to 302 °C (dec.) |
| COc1ccc(-c2ccc(F)cc2)cc1CN[C@H]1CCCN(Cc2n[nH]c(=O)[nH]2)[C@H]1c1ccccc1 (as salt: hydrochloride) [Example 104, (2S,3S)-1-[5(4H)-oxo-1,2,4-triazol-3-yl]methyl-2-phenyl-3-[[2-methoxy-5-(4-fluorophenyl)benzyl]amino]piperidine dihydrochloride] | 198 to 200 °C (dec.) |
